Molecules are shown by their SMILES. Values after ≈ are worked out from the molar mass of the structure shown. Active and inactive are the calls of the source. The rule behind the calls is not given here. Where only a bound is given, the exact number is not on record here.

One series addresses Coagulation factor XI (Homo sapiens, UniProt P03951). Put plainly: Binding affinity to human coagulation factor 11a using L-Pyroglutamyl-L-prolyl-L-arginine p-Nitroaniline as substrate assessed as inhibition constant measured upto 120 mins by spectrophotometric analysis.
The subject of a further series is Plasma. In words: Anticoagulant activity in human plasma assessed as activated partial thromboplastin time. The class given is functional.
Series [1] is described as follows: Metabolic stability in human liver microsomes assessed as half life. Format: ADME, Microsome.
Series [2] is described as follows: Protein binding in Sprague-Dawley rat plasma assessed as bound fraction. The class given is ADME, cell-free. Also noted: dose or concentration left out as unconfirmed.
Series [3] in a line: Volume of distribution at steady state in cynomolgus monkey at 1.50 mg/kg, po or 0.50 mg/kg, iv. The class given is ADME, organism-based, Macaca fascicularis. As to conditions: in vivo, dose 1.5 mg/kg, read-out: Vdss.
Series [4] can be described thus: Protein binding in cynomolgus monkey plasma. The class given is ADME, cell-free, Macaca fascicularis. The following applies: read-out: PPB (converted).
Series [5] is described as follows: Aqueous solubility of the compound at pH 1.0. The following applies: aqueous medium. Format: physicochemical.
The species entered for series [6] is Homo sapiens. Put plainly: Inhibition of Monoamine oxidase (unknown origin) at 16 to 94 ug/ml. As to conditions: dose 16-94 µg/ml.
A short description of series [7]: Half life in cynomolgus monkey at 1.50 mg/kg, po or 0.50 mg/kg, iv. The class given is ADME, organism-based, Macaca fascicularis. As to conditions: in vivo, dose 1.5 mg/kg.
Series [8] is described as follows: Half life in Sprague-Dawley rat at 1.04 mg/kg, po or 0.52 mg/kg, iv. Format: ADME, organism-based. The following applies: in vivo.
Series [9] can be described thus: Volume of distribution at steady state in Sprague-Dawley rat at 1.04 mg/kg, po or 0.52 mg/kg, iv. The following applies: in vivo, read-out: Vdss. The class given is ADME, organism-based.
The nature of series [10]: Fraction unbound in human plasma. The class given is ADME, cell-free.
Series [11] in a line: Aqueous solubility of the compound at pH 6.5. The class given is physicochemical. The following applies: aqueous medium.
For another series, the target named is Trypsin (Homo sapiens, UniProt P07477+P07478+P35030). In words: Binding affinity to human trypsin assessed as inhibition constant using N-Benzoyl-L-isoleucyl-L-glutamyl-glycyl-Larginine p-Nitroaniline and its gamma glutamyl methyl ester as substrate measured upto 120 mins by spectrophotometric analysis. The class given is protein assay.
For the next series, the target named is Coagulation factor XII (Homo sapiens, UniProt P00748). Put plainly: Binding affinity to human coagulation factor 12a assessed as inhibition constant using H-D-Cyclohexylalanyl-glycyl-arginyl p-Nitroaniline as substrate measured upto 120 mins by spectrophotometric analysis.
The next series deals with Myeloblastin (Homo sapiens, UniProt P24158). Put plainly: Binding affinity to human neutrophil proteinase 3 assessed as inhibition constant using Methoxysuccinyl-L-alanyl-L-alanyl-L-prolylL-valine p-Nitroaniline as substrate measured upto 120 mins by spectrophotometric analysis.
The nature of series [12]: Oral bioavailability in cynomolgus monkey at 1.50 mg/kg. The class given is ADME, organism-based, Macaca fascicularis. As to conditions: in vivo, dose 1.5 mg/kg.
The nature of series [13]: Fraction unbound in Sprague-Dawley rat plasma. Format: ADME, cell-free.
The nature of series [14]: Oral bioavailability in Sprague-Dawley rat at 1.04 mg/kg. As to conditions: in vivo. The class given is ADME, organism-based.
Series [15] in a line: AUC in Sprague-Dawley rat at 1.04 mg/kg, po. The class given is ADME, organism-based. Also noted: dose 1.04 mg/kg. The following applies: in vivo.
The next series addresses Coagulation factor VII (Homo sapiens, UniProt P08709). Put plainly: Binding affinity to recombinant human coagulation factor 7a assessed as inhibition constant using N-alpha-Benzyloxycarbonyl-D-arginyl-glycyl-Larginine p-Nitroaniline as substrate measured upto 120 mins by coupled enzyme assay.
Series [16] has as its target Acetylcholinesterase (Homo sapiens) (UniProt P22303). In words: Inhibition of acetylcholinesterase (unknown origin) at 16 to 94 ug/ml. The following applies: dose 16-94 µg/ml.
The target of another series is Plasminogen (Homo sapiens, UniProt P00747). Put plainly: Binding affinity to human plasmin assessed as inhibition constant using H-D-Valyl-L-leucyl-L-lysine p-Nitroaniline as substrate measured upto 120 mins by spectrophotometric analysis.
A further series has as its target Coagulation factor IX (Homo sapiens, UniProt P00740). In words: Binding affinity to human coagulation factor 9a assessed as inhibition constant using Methylsulfonyl-D-cyclohexylglycyl-glycylarginine 7-amino-4-methylcoumarin as substrate measured upto 120 mins by spectrofluorometric analysis.
For series [17], the target named is Tissue-type plasminogen activator (Homo sapiens, UniProt P00750). Put plainly: Binding affinity to human tissue type plasminogen assessed as inhibition constant using Methanesulfonyl-D-Cyclohexylalanyl-glycylarginine p-Nitroaniline as substrate measured upto 120 mins by spectrophotometric analysis.
Another series has as its target Chymase (Homo sapiens, UniProt P23946). In words: Binding affinity to human mast cell chymase assessed as inhibition constant using Succinyl-L-alanyl-L-alanyl-L-prolyl-L phenylalanine p-Nitroaniline as substrate measured upto 120 mins by spectrophotometric analysis.
Series [18] in a line: AUC in cynomolgus monkey at 1.50 mg/kg, po. The class given is ADME, organism-based, Macaca fascicularis. Also noted: dose 1.5 mg/kg. As to conditions: in vivo, 1.5 mg/kg.
The next series addresses Coagulation factor X (Homo sapiens, UniProt P00742). In words: Binding affinity to human coagulation factor 10a assessed as inhibition constant using N-Benzoyl-L-isoleucyl-L-glutamyl-glycyl-Larginine p-Nitroaniline and its gamma glutamyl methyl ester as substrate measured upto 120 mins by spectrophotometric analysis.
Series [19] deals with Urokinase-type plasminogen activator (Homo sapiens, UniProt P00749). In words: Binding affinity to human urokinase assessed as inhibition constant using L-Pyroglutamyl-glycyl-L-arginine p-Nitroaniline as substrate upto 120 mins by spectrophotometric analysis.
The next series concerns the target Cathepsin G (Homo sapiens, UniProt P08311). Put plainly: Binding affinity to human neutrophil cathepsin G assessed as inhibition constant using Succinyl-L-alanyl-L-alanyl-L-prolyl-Lphenylalanine p-Nitroaniline as substrate measured upto 120 mins by spectrophotometric analysis.
The species named for series [20] is Homo sapiens. In words: Inhibition of Phosphodiesterase (unknown origin) at 16 to 94 ug/ml. The following applies: dose 16-94 µg/ml.
The target in series [21] is Vitamin K-dependent protein C (Homo sapiens, UniProt P04070). Put plainly: Binding affinity to human activated protein C assessed as inhibition constant using L-Pyroglutamyl-L-prolyl-L-arginine p-Nitroaniline as substrate measured upto 120 mins by spectrophotometric analysis.
A short description of series [22]: Clearance in cynomolgus monkey at 1.50 mg/kg, po or 0.50 mg/kg, iv. The class given is ADME, organism-based, Macaca fascicularis. As to conditions: in vivo, dose 1.5 mg/kg.
The nature of series [23]: Metabolic stability in Sprague-Dawley rat liver microsomes assessed as half life. The class given is ADME, Microsome. Set-up: dose or concentration left out as unconfirmed. A general note: Microsomes from liver hold many membrane-bound enzymes, among them those of drug oxidation.
A short description of series [24]: Metabolic stability in cynomolgus monkey liver microsomes assessed as half life. The class given is ADME, Macaca fascicularis, Microsome. Set-up: dose or concentration left out as unconfirmed.
A further series deals with Chymotrypsin (Homo sapiens, UniProt Q99895+P17538+P40313+Q6GPI1). Put plainly: Binding affinity to human chymotrypsin assessed as inhibition constant using 3-Carbomethoxypropionyl-L-arginyl-Lprolyl-L-tyrosine p-Nitroaniline as substrate measured upto 120 mins by spectrophotometric analysis. Format: protein assay.
A further series has as its target Kallikrein-1 (Homo sapiens, UniProt P06870). Put plainly: Binding affinity to human tissue kallikrein-1 assessed as inhibition constant using H-D-Valyl-L-leucyl-L-arginine 7-amino-4-trifluoromethylcoumarin as substrate measured upto 120 mins by spectrofluorometric analysis. Format: tissue-based.
The next series has as its target Neutrophil elastase (Homo sapiens, UniProt P08246). Put plainly: Binding affinity to human neutrophil elastase assessed as inhibition constant using Methoxysuccinyl-L-alanyl-L-alanyl-L-prolylL-valine p-Nitroaniline as substrate measured upto 120 mins by spectrophotometric analysis.
A short description of series [25]: Clearance in Sprague-Dawley rat at 1.04 mg/kg, po or 0.52 mg/kg, iv. The class given is ADME, organism-based. The following applies: in vivo.
Another series has as its system Oryctolagus cuniculus. In words: Antithrombotic activity in New Zealand White rabbit model of electrically-induced carotid artery thrombosis assessed as inhibition of thrombosis formation by measuring increase in bleeding time administered as iv bolus dose and subsequently administered as iv infusion 30 mins prior to injury. Format: functional, organism-based.

Sequence of Coagulation factor XI (P03951 19-387 limits assumed): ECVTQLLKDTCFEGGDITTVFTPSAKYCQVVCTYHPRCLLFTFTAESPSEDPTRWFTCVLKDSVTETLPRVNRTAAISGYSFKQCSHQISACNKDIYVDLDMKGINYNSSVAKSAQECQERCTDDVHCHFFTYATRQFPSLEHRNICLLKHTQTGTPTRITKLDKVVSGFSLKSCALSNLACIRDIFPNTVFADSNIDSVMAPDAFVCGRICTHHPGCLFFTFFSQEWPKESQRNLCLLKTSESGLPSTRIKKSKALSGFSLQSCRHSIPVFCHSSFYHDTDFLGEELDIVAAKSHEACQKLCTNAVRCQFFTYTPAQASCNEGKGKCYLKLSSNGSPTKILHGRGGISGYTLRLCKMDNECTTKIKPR
Sequence of Coagulation factor XI (P03951 388-625 limits assumed): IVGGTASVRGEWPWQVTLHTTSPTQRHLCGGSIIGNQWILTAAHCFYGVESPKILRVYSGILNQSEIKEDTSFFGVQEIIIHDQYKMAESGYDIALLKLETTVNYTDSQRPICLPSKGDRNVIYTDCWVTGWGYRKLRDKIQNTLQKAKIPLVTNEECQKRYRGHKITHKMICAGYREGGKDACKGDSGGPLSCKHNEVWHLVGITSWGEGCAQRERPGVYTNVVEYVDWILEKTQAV
Sequence of Coagulation factor XII (P00748 20-372 limits assumed): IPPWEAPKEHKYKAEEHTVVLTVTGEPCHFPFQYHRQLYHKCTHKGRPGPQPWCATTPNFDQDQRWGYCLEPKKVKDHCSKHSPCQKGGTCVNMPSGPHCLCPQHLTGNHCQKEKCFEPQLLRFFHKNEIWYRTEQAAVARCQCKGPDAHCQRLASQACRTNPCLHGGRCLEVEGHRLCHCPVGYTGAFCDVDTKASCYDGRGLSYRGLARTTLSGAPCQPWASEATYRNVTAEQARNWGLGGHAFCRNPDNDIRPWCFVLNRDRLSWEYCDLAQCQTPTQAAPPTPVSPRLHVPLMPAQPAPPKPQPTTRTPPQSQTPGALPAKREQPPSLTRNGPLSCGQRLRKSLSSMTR
Sequence of Coagulation factor XII (P00748 373-615 limits assumed): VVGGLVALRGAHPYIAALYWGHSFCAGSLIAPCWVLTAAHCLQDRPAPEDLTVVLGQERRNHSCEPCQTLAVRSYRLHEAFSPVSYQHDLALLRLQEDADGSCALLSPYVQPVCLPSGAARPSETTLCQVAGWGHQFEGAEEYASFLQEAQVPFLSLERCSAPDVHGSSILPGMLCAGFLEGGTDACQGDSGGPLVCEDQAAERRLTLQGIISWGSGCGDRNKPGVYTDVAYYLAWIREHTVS
Sequence of Chymase (P23946 whole entry): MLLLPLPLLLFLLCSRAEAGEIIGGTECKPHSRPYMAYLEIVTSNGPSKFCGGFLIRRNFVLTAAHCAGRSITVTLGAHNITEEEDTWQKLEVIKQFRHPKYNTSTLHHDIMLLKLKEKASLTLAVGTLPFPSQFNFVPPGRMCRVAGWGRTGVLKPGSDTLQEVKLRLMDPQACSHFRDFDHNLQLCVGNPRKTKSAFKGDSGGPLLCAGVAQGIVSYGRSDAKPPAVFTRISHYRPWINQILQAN
Sequence of Myeloblastin (P24158 whole entry): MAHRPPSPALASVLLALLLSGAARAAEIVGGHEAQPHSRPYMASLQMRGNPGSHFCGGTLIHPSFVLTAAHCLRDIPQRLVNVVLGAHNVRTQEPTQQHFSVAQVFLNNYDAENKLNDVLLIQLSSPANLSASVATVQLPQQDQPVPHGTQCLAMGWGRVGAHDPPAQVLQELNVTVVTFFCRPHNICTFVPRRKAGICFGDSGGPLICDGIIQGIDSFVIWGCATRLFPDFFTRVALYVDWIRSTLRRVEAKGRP
Sequence of Neutrophil elastase (P08246 whole entry): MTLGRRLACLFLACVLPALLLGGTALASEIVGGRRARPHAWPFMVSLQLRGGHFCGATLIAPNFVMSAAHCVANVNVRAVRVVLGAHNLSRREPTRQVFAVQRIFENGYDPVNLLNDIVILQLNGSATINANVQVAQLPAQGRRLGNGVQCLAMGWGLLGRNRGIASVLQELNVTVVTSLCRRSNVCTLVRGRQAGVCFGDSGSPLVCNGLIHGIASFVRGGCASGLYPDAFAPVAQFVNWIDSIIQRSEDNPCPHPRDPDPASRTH
Sequence of Tissue-type plasminogen activator (P00750 whole entry): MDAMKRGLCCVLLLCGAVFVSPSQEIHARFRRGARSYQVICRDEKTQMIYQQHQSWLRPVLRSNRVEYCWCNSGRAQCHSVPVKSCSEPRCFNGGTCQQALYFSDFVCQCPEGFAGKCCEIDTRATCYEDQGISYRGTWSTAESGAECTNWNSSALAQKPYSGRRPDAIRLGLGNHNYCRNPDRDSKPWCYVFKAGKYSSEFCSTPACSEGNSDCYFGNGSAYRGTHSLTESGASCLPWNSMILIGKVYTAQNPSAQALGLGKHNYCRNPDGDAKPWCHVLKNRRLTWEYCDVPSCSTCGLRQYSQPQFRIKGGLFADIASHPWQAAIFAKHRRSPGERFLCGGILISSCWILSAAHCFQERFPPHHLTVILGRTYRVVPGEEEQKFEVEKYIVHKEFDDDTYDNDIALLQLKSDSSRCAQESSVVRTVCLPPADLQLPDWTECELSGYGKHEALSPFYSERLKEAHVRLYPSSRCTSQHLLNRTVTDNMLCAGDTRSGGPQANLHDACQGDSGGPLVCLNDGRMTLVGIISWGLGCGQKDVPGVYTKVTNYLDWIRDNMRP
Sequence of Coagulation factor VII (P08709 61-212 limits assumed): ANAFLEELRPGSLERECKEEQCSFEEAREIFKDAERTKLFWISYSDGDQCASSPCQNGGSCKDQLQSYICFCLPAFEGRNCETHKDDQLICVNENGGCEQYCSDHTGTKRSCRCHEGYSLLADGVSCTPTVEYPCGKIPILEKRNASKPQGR
Sequence of Coagulation factor VII (P08709 213-466 limits assumed): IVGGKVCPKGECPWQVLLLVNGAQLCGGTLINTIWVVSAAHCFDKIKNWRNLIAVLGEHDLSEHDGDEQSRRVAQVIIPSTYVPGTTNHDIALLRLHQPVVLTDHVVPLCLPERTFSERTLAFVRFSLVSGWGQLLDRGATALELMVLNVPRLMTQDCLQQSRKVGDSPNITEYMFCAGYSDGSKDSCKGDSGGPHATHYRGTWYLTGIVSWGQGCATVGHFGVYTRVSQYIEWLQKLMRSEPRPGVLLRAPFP
Sequence of Acetylcholinesterase (Homo sapiens) (P22303 whole entry): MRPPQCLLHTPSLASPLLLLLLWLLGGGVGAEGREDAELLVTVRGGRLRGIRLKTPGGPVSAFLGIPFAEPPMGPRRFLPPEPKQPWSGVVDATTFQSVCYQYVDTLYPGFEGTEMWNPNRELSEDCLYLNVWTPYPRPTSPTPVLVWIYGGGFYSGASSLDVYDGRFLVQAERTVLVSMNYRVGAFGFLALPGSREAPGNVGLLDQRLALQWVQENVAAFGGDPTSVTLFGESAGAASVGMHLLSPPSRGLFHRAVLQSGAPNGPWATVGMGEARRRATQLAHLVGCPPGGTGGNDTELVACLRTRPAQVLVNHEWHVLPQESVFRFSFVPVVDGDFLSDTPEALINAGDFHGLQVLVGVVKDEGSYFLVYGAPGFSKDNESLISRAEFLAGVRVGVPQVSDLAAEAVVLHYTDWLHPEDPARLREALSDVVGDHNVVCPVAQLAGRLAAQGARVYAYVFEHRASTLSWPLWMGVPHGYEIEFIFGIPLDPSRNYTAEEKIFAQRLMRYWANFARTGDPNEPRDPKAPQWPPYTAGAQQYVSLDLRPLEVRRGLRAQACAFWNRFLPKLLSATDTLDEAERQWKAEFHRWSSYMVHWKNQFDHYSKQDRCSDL
Sequence of Kallikrein-1 (P06870 whole entry): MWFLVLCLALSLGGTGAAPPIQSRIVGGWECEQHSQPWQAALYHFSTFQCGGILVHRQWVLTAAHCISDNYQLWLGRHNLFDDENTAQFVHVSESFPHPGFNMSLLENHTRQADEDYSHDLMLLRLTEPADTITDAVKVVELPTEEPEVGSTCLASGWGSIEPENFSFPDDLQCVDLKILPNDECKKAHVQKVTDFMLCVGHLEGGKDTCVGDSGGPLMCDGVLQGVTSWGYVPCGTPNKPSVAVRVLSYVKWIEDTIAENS
Sequence of Plasminogen (P00747 97-580 limits assumed): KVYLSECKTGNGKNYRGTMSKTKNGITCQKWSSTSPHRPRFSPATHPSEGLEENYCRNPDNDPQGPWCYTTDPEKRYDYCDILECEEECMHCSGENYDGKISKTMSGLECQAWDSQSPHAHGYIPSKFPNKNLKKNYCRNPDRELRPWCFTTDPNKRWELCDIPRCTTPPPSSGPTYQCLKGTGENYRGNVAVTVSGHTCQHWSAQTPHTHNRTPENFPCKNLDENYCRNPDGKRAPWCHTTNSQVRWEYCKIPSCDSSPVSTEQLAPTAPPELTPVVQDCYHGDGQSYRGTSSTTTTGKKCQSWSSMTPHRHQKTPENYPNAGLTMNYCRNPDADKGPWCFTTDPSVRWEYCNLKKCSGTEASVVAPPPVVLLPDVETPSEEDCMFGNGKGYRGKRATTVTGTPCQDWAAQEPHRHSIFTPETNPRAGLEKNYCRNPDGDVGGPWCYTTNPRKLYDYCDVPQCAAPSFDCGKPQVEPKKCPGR
Sequence of Plasminogen (P00747 581-810 limits assumed): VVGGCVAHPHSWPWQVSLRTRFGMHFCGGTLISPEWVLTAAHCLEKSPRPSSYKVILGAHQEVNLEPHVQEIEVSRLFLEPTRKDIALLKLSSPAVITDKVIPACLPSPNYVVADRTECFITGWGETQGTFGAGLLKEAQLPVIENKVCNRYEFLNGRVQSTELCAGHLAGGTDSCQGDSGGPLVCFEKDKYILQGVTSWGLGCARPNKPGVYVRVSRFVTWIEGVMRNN
Sequence of Cathepsin G (P08311 whole entry): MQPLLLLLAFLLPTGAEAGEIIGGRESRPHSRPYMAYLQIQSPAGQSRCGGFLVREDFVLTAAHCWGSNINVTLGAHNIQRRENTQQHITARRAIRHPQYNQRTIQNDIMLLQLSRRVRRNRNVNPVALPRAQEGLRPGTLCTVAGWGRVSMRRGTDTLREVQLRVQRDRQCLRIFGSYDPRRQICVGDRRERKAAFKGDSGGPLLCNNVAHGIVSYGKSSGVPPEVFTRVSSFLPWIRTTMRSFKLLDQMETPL

What is called Ki is a measure of affinity in units of concentration, obtained from inhibition or displacement. Regarding `C[C@@H]1CCC[C@H](N2CCC(c3c(F)ccc(Cl)c3F)=CC2=O)c2cc(ccn2)-c2[nH]ncc2NC1=O`, the Ki at Coagulation factor XI was found to be 548 nM.

One may read the half-life as the time in which the quantity being followed falls by half. Consider `CCn1ncc2c1-c1ccnc(c1)[C@@H](N1CCC(c3cc(Cl)ccc3-n3ccnn3)=CC1=O)CCC[C@@H](C)C(=O)N2`, for which the inhibition constant (Ki) at Coagulation factor XI turned out to be 1.3 nM. In addition, the EC1.5 with Plasma was 0.48 µM. In series [1], the half-life worked out at 0.167 h.

Consider `C[C@@H]1CCC[C@H](N2CCC(c3cc(Cl)ccc3-n3ccnn3)=CC2=O)c2cc(ccn2)-c2c(cnn2C)NC1=O`, for which, in the series with Plasma, the EC1.5 was 0.36 µM. Besides, the half-life in series [1] came to 1.13 h.

For the molecule `C[C@@H]1CCC[C@H](N2CCC(c3cc(Cl)ccc3-n3ccnc3)=CC2=O)c2cc(ccn2)-c2c(cnn2C)NC1=O`, the inhibition constant (Ki) on Coagulation factor XI is 2.7 nM. Moreover, in the series on Plasma, the EC1.5 amounted to 0.6 µM.

For `C[C@@H]1CCC[C@H](N2CCC(c3cc(Cl)ccc3-n3ccnn3)=CC2=O)c2cc(ccn2)-c2c(cnn2C2CC2)NC1=O`, at Coagulation factor XI, the inhibitory constant (Ki) is 1.1 nM. Moreover, the EC1.5 in the series on Plasma came to 0.49 µM. In addition, the half-life in [1] is 0.0833 h.

On to `C[C@@H]1CCC[C@H](N2CCC(c3cc(Cl)ccc3-n3cccn3)=CC2=O)c2cc(ccn2)-c2c(cnn2C)NC1=O`, for which the Ki on Coagulation factor XI was found to be 11 nM. In the series on Plasma, the EC1.5 turned out to be 8.9 µM.

What is called solubility is the dissolved amount per volume that the medium holds. By bioavailability is commonly meant the share of a dose that reaches the circulation, judged against a reference dose that is usually intravenous. As usually defined, the AUC is concentration integrated over time. For `C[C@@H]1CCC[C@H](n2cnc(-c3cc(Cl)ccc3-n3cc(Cl)nn3)cc2=O)c2cc(ccn2)-c2c(cnn2C(F)F)NC1=O` [MILVEXIAN], the fraction unbound in series [2] was 0.029; in [4], 0.109; in series [10], 0.085; in series [13] it was 0.029. Besides, the results for the Vd in series [3] and in series [9] were 2.2 L/kg and 0.9 L/kg, respectively. The solubility in series [5] was determined as 8 µg/mL (≈ 12.8 µM); in [11], 6 µg/mL (≈ 9.58 µM). Further, the inhibition result (in the series listed under Homo sapiens [6]; in series [16]; in the series listed under Homo sapiens [20]) was “inactive” each time. The half-life was 2.7 h in series [7]; 1.4 h in [8]; over 2 h in series [23]; 1.38 h in [24]; over 2 h in [1]. Also, the Ki is 720 nM at Trypsin; over 3000 nM on Coagulation factor XII; over 12000 nM on Myeloblastin; 1200 nM at Coagulation factor VII; 2650 nM at Plasminogen; over 27000 nM on Coagulation factor IX. Also, the Ki was 2300 nM in [17]; over 13000 nM at Chymase; over 13000 nM at Coagulation factor X; 3900 nM in series [19]; over 20000 nM at Cathepsin G; over 21000 nM in series [21]. Moreover, the inhibitory constant (Ki) on Chymotrypsin is 35 nM; on Kallikrein-1 it was over 11000 nM; at Neutrophil elastase it was over 8000 nM. The bioavailability in [12] worked out at 32%; in [14], 18%. The AUC in series [15] amounted to 0.7 µM·h; in series [18], 1.22 µM·h. The EC1.5 with Plasma came to 0.5 µM. In addition, the clearance came out at 10.3 mL/min/kg in series [22] and 7.1 mL/min/kg in [25].

As usually defined, the EC50 is the concentration that produces a half-maximal response. As for `COC(=O)Nc1ccc2c(c1)NC(=O)[C@H](C)CCC[C@H](N1CCC(c3c(F)ccc(Cl)c3F)=CC1=O)c1cc-2ccn1`, the EC50 with Oryctolagus cuniculus is 375 nM.

For the origin of these results see ChEMBL document CHEMBL5038606 (J Med Chem, 2022).
